Values of other authors, collected in patent US4461765A (Shionogi & Co., Ltd., priority 1979, dated 1984).
≈ marks a conversion by molar mass, not a printed value.

Conditions: co-trimoxazol SMX:TMP 5:1; oral or intravenous administration

COc1cc(Cc2cnc(N)nc2N)cc(OC)c1OC [TMP, trimethoprim]
minimum inhibition concentration in the blood level: 0.6 µg/mL (≈ 2.07 µM)
